This passage reports EC50 results from patent US8685982B2, “Thioamide, amidoxime and amidrazone derivatives as HIV attachment inhibitors” (priority 2011, dated 2014).

The test system of this assay is HIV-1 LAI envelope single-round infectious reporter virus. The assay can be described thus: Single-round infectious HIV-1 LAI luciferase reporter virus infection of MT2 cells. It is filed as cell-based. The note with it: Human immunodeficiency virus 1, MT2, 72 h. An excerpt: Virus Production • Human embryonic Kidney cell line, 293T (HEK 293T), was propagated in Dulbecco's Modified Eagle Medium (Invitrogen, Carlsbad, Calif.) containing 10% fetal bovine serum (FBS, Sigma, St. Louis, Mo.). The human T-cell leukemia cell MT2 (AIDS Research and Reference Reagent Program, Cat. 237) was propagated in RPMI 1640 (Invitrogen, Carlsbad, Calif.) containing 10% fetal bovine serum (FBS, Hyclone, Logan, Utah)
Virus Infection • Single-round infectious reporter virus was produced by co-transfecting HEK 293T cells with plasmide expressing the HIV-1 LAI envelope along with a plasmid containing an HIV-1 LAI proviral cDNA with the envelope gene replaced by a firefly luciferase reporter gene (Chen et al., Ref 41). Transfections were performed using lipofectAMINE PLUS reagent as described by the manufacturer (Invitrogen, Carlsbad, Calif.). Experimental Procedure • 1. MT2 cells were plated in black, 384 well plates at a cell density of 5×10^3 cells per well in 25 μl RPMI 1640 containing 10% FBS. • 2. Compound (diluted in dimethylsulfoxide and growth medium) was added to cells at 12.5 μl/well, so that the final assay concentration would be ≦50 nM. • 3. 12.5 μl of single-round infectious reporter virus in Dulbecco's Modified Eagle Medium was added to the plated cells and compound at an approximate multiplicity of infection (MOI) of 0.01, resulting in a final volume of 50 μl per well. • 4. Virus-infected cells were incubated at 37 degrees Celsius in a CO2 incubator and harvested 72 h after infection. • 5. Viral infection was monitored by measuring luciferase expression in the infected cells using a luciferase reporter gene assay kit (Steady-Glo, Promega, Madison, Wis.) as described by the manufacturer. Luciferase activity was then quantified by measuring luminescence using an EnVision Multilabel Plate Readers (PerkinElmer, Waltham, Mass.). • 6. The percent inhibition for each compound was calculated by quantifying the level of luciferase expression in cells infected in the presence of each compound as a percentage of that observed for cells infected in the absence of compound and subtracting such a determined value from 100. • 7. An EC50 provides a method for comparing the antiviral potency of the compounds of this disclosure. The effective concentration for fifty percent inhibition (EC50) was calculated with the Microsoft Excel Xlfit curve fitting software. For each compound, curves were generated from percent inhibition calculated at 10 different concentrations by using a four parameter logistic model (model 205). Table 1 is the key for the data in Table 2.

[1] abbreviates: read-out: EC50 Group from Table 1.

Like-named read-outs stand apart in the source and are kept apart here.

On to `CON=C(c1ccccc1)N1CCN(C(=O)C(=O)c2c[nH]c3c(-n4ccnn4)ncc(F)c23)CC1` [Compound 2002, 1-(4-fluoro-7-(1H-1,2,3-triazol-1-yl)-1H-pyrrolo[2,3-c]pyridin-3-yl)-2-(4-((methoxyimino)(phenyl)methyl)piperazin-1-yl)ethane-1,2-dione], for which the EC50 under setting [1] is less than 500 nM.

`CN(C)c1ccc(C(=S)N2CCN(C(=O)C(=O)c3c[nH]c4cccc(F)c34)CC2)cc1` [Compound 1001]: under setting [1], the half-maximal effective concentration (EC50) was more than 500 nM.

The compound `CON=C(c1ccccc1)N1CCN(C(=O)C(=O)c2c[nH]c3c(-n4cnc(C)n4)ncc(OC)c23)CC1` [Compound 2004, 1-(4-methoxy-7-(3-methyl-1H-1,2,4-triazol-1-yl)-1H-pyrrolo[2,3-c]pyridin-3-yl)-2-(4-((methoxyimino)(phenyl)methyl)piperazin-1-yl)ethane-1,2-dione] displayed an EC50 of 0.019 nM. In addition, the EC50 under setting [1] was less than 500 nM.

`O=C(C(=O)N1CCN(C(=S)c2ccccc2)CC1)c1c[nH]c2c(-n3ccnn3)ncc(F)c12` [Compound 2001, 1-(4-fluoro-7-(1H-1,2,3-triazol-1-yl)-1H-pyrrolo[2,3-c]pyridin-3-yl)-2-(4-(phenylcarbonothioyl)piperazin-1-yl)ethane-1,2-dione] came in with an EC50 of 0.027 nM. In addition, under setting [1], the concentration giving a half-maximal response (EC50) was less than 500 nM.

As to `O=C(C(=O)N1CCN(C(=NO)c2ccccc2)CC1)c1c[nH]c2c(-n3ccnn3)ncc(F)c12` [Compound 2005, 1-(4-fluoro-7-(1H-1,2,3-triazol-1-yl)-1H-pyrrolo[2,3-c]pyridin-3-yl)-2-(4-((hydroxyimino)(phenyl)methyl)piperazin-1-yl)ethane-1,2-dione], a half-maximal response (EC50) required 0.121 nM. For the same compound, the 50% effective concentration (EC50) under setting [1] was less than 500 nM.

Regarding `CN(C)N=C(c1ccccc1)N1CCN(C(=O)C(=O)c2c[nH]c3c(-n4ccnn4)ncc(F)c23)CC1` [Compound 1003], the 50% effective concentration (EC50) under setting [1] was less than 500 nM.
